These results are taken from US11142518B2, “6-pyrimidin-isoindole derivative as ERK1/2 inhibitor” (OTSUKA PHARMACEUTICAL CO., LTD., priority 2017, dated 2021).

Data set [1] can be described thus: Solubility determinations in non-aqueous solvents. The data set is classed as physicochemical. To be noted: for solubility at 72 h: organic solvent or mixture, thermodynamic from solid, read-out: Estimated maximum solubilities (mg/ml), at 18 to 23° C. On the procedure: Form B of Compound (1), prepared as described in Example 3, was charged to the appropriate solvent (2 ml) at intervals of approximately 1 hour. The solutions were purposefully saturated and allowed to stir over 72 h at 18 to 23° C. After this time, the suspensions were centrifuged, their supernatants were sampled, diluted accordingly and the peak areas of the corresponding analytes were measured by HPLC and compared against those of the standard calibrants. The approximate solubilities were calculated and solubilities were physically checked on an anhydrous solvent free basis to confirm that the results were consistent.
The saturated solutions were centrifuged and 100 μl of the clarified supernatant was added to 250 ml volumetric (ethanol) or 100 ml volumetrics (remainder) and made to volume with sample diluent. The diluted samples were then analysed by HPLC peak area and the estimated maximum solubilities were calculated and are reported in the table below.
To confirm the estimated solubilities were of the right order of magnitude solutions were prepared up to the estimated maximum measured concentrations and the mixtures were stirred overnight under the same conditions to confirm dissolution.

Data set [2] can be described thus: Solubility determinations in purified water and buffers. The data set is classed as physicochemical. To be noted: for solubility at 24 h: 18 °C, read-out: Measured solubilities (mg/ml), bound; for solubility at 24 h / Measured solubilities (mg/ml), value in brackets / Measured solubilities (mg/ml), bound: 18-23° C., t = 24 h. On the procedure: The solubilities of crystalline form B and the amorphous form of the compound of formula (1) were determined in purified water and buffers at the same concentration up to 24 h stir time at 18 to 23° C.
The samples of the compound of formula (1) (50 mg) were each suspended in purified water (2 mL) or the appropriate buffer and stirred at ambient temperature (18-23° C.) for 20 to 24 h. After this time the slurries were centrifuged, diluted if appropriate by HPLC sample diluent (acetonitrile/water, 1/1, v/v) and analysed by HPLC peak area. The measured values were compared against a relevant calibration curve for the compound of formula (1). The approximate solubilities were calculated and compensation factors were applied for the appropriate dilution factors and % w/w assays. The dilution factor ensured that the peak area values fell within the desired calibration curve ranges.
The plug of solid that remained in the centrifuge tube was dried in vacuum oven and analysed by XRPD.
The preparations of the buffers used in the study are described below:
pH 1.2—Mix 50 mL of 0.2M potassium chloride solution with 85 mL of 0.2M hydrochloric acid solution.
pH 2—Mix 50 mL of 0.2M potassium chloride solution with 13 mL of 0.2M hydrochloric acid solution.
pH 3—Mix 100 mL of 0.1M potassium hydrogen phthalate with 44.6 mL of 0.1M hydrochloric acid solution.
pH 4—Mix 100 mL of 0.1M potassium hydrogen phthalate with 0.2 mL of 0.1M hydrochloric acid solution.
pH 5—Mix 100 mL of 0.1M potassium hydrogen phthalate with 45.2 mL of 0.1M sodium hydroxide solution.
pH 6—Mix 100 mL of 0.1M potassium dihydrogen orthophosphate with 11.2 mL of 0.1M sodium hydroxide solution.
pH 7—Mix 100 mL of 0.1M potassium dihydrogen orthophosphate with 58.2 mL of 0.1M sodium hydroxide solution.
pH 8—Mix 100 mL of 0.1M potassium dihydrogen orthophosphate with 93.4 mL of 0.1M sodium hydroxide solution.

Data set [3] relates to Human melanoma cell line A375. As to the kind of experiment: Anti-proliferative activity (Alamar Blue). The class given is cell-based. To be noted: A-375, 96 h, A375 cells, 4 days incubation. As for the experimental part: The anti-proliferative activities of the compound of the invention was determined by measuring the ability of the compound of formula (1) to inhibit growth in the Human melanoma cell line A375.
Cell proliferation was determined by measuring the conversion of rezasurin (Alamar Blue) to resorufin in reponse to mitochondrial activity (Nociari, M. M, Shalev, A., Benias, P., Russo, C. Journal of Immunological Methods 1998, 213, 157-167). A375 cells (American Type Culture Collection, Teddington, UK) were grown in Dulbecco's Modified Eagle Medium+10% FBS. Each well of a black 96-well flat-bottomed plate was seeded with 2×10^3 cells in 200 μl of complete culture medium one day before the compound treatment. Cells were incubated with compound in 0.1% (v/v) dimethyl sulfoxide (DMSO) for 4 days before addition of 20 μl Alamar blue. After a further 6 h incubation at 37° C. the plate was read on a Spectramax Gemini reader (Molecular Devices; excitation 535 nm, emission 590 nm). GI50 values were calculated using a sigmoidal dose response equation (Prism GraphPad software, La Jolla, Calif., USA).
(In general: Alamar Blue is a resazurin reagent that responds to reducing activity.)

Each structure is given as a SMILES string. In brackets after ≈: the same amount, converted by molar mass. Like-named read-outs stand apart in the source and are kept apart here.

As for `COc1cc(F)cc([C@@H](CO)NC(=O)[C@@H](C)N2Cc3ccc(-c4nc(NC5CCOCC5)ncc4Cl)cc3C2=O)c1` [(2R)-2-(6-{5-chloro-2-[(oxan-4-yl)amino]pyrimidin-4-yl}-1-oxo-2,3-dihydro-1H-isoindol-2-yl)-N-[(1S)-1-(3-fluoro-5-methoxyphenyl)-2-hydroxyethyl]propanamide], the solubility at 72 h in data set [1] (PEG 400, 18 °C) is 229 mg/mL (≈ 392000 µM); in data set [1] (ethanol, 18 °C) it was 337 mg/mL (≈ 577000 µM); in data set [1] (glycerol, 18 °C), 5 mg/mL (≈ 8560 µM); in data set [1] (propylene glycol, 18 °C), 289 mg/mL (≈ 495000 µM). Moreover, in data set [2] (buffers at pH 1.2 to 8.0, 20.5 °C, pH 1.2, aqueous buffer, thermodynamic from solid, buffers at pH 1.2 to 8.0, read-out: Solubility in buffers (conclusion: practically insoluble)), the solubility was under 100 µg/mL. Further, the solubility at 24 h in data set [2] (pH 1.2 buffer, pH 1.2, simulated gastric fluid, thermodynamic from solid, pH 1.2 Buffer) is at least 0.1 mg/mL; in data set [2] (pH 2 buffer, pH 2, simulated gastric fluid, thermodynamic from solid, pH 2 Buffer), under 0.1 mg/mL; in data set [2] (pH 3 buffer, pH 3, aqueous buffer, thermodynamic from solid, pH 3 Buffer), under 0.1 mg/mL; in data set [2] (pH 4 buffer, pH 4, aqueous buffer, thermodynamic from solid, pH 4 Buffer) it was under 0.1 mg/mL; in data set [2] (pH 5 buffer, pH 5, aqueous buffer, thermodynamic from solid, pH 5 Buffer), under 0.1 mg/mL; in data set [2] (pH 6 buffer, pH 6, aqueous buffer, thermodynamic from solid, pH 6 Buffer) it was under 0.1 mg/mL. Further, the solubility at 24 h in data set [2] (pH 7 buffer, pH 7, aqueous buffer, thermodynamic from solid, pH 7 Buffer) was under 0.1 mg/mL; in data set [2] (pH 8 buffer, pH 8, aqueous buffer, thermodynamic from solid, pH 8 Buffer), under 0.1 mg/mL; in data set [2] (purified water, water, thermodynamic from solid, Purified water), under 0.1 mg/mL.
For `COc1cc(F)cc([C@@H](CO)NC(=O)[C@@H](C)N2Cc3ccc(-c4nc(NC5CCOCC5)ncc4Cl)cc3C2=O)c1` [Amorphous Form of the Compound of Formula (1)] [(2R)-2-(6-{5-chloro-2-[(oxan-4-yl)amino]pyrimidin-4-yl}-1-oxo-2,3-dihydro-1H-isoindol-2-yl)-N-[(1S)-1-(3-fluoro-5-methoxyphenyl)-2-hydroxyethyl]propanamide], the “Measured solubilities (mg/ml), value in brackets” value is “(0.0234 mg/ml” in data set [2] (Purified water); “(0.1249 mg/ml” in data set [2] (pH 1.2 Buffer); “(0.0226 mg/ml” in data set [2] (pH 2 Buffer); “(0.0257 mg/ml” in data set [2] (pH 3 Buffer); “(0.0418 mg/ml” in data set [2] (pH 4 Buffer); “(0.0268 mg/ml” in data set [2] (pH 5 Buffer). Besides, the “Measured solubilities (mg/ml), value in brackets” value in data set [2] (pH 6 Buffer) is reported as “(0.0149 mg/ml”; in data set [2] (pH 7 Buffer) it was “(0.0136 mg/ml”; in data set [2] (pH 8 Buffer), “(0.0138 mg/ml”.
As for `COc1cc(F)cc([C@@H](CO)NC(=O)[C@@H](C)N2Cc3ccc(-c4nc(NC5CCOCC5)ncc4Cl)cc3C2=O)c1` [Crystalline Form B of the Compound of Formula (1)] [(2R)-2-(6-{5-chloro-2-[(oxan-4-yl)amino]pyrimidin-4-yl}-1-oxo-2,3-dihydro-1H-isoindol-2-yl)-N-[(1S)-1-(3-fluoro-5-methoxyphenyl)-2-hydroxyethyl]propanamide], the “Measured solubilities (mg/ml), bound” value in data set [2] (Purified water), in data set [2] (pH 1.2 Buffer), in data set [2] (pH 2 Buffer), in data set [2] (pH 3 Buffer), in data set [2] (pH 4 Buffer) and in data set [2] (pH 5 Buffer) was under 0.1 mg/mL each time. Besides, the “Measured solubilities (mg/ml), bound” value in data set [2] (pH 6 Buffer), in data set [2] (pH 7 Buffer) and in data set [2] (pH 8 Buffer) was under 0.1 mg/mL throughout. In addition, the “Measured solubilities (mg/ml), value in brackets” value in data set [2] (pH 2 Buffer) is “(0.0034 mg/ml”; in data set [2] (pH 3 Buffer), “(0.0045 mg/ml”; in data set [2] (pH 4 Buffer), “(0.0049 mg/ml”; in data set [2] (pH 5 Buffer), “(0.0031 mg/ml”; in data set [2] (pH 6 Buffer), “(0.0027 mg/ml”; in data set [2] (pH 7 Buffer) it was “(0.0017 mg/ml”. In addition, the “Measured solubilities (mg/ml), value in brackets” value in data set [2] (pH 8 Buffer) is on record as “(0.0020 mg/ml”.
`COc1cc(F)cc([C@@H](CO)NC(=O)[C@@H](C)N2Cc3ccc(-c4nc(NC5CCOCC5)ncc4Cl)cc3C2=O)c1` [compound of formula (1), (2R)-2-(6-{5-chloro-2-[(oxan-4-yl)amino]pyrimidin-4-yl}-1-oxo-2,3-dihydro-1H-isoindol-2-yl)-N-[(1S)-1-(3-fluoro-5-methoxyphenyl)-2-hydroxyethyl]propanamide]: in data set [3], growth was halved (GI50) at 3.4 nM. Moreover, the “Solubility in ethanol, PEG 400 and propylene glycol compared with water” value in data set [1] (ethanol, PEG 400 and propylene glycol than in water) is on record as “significantly greater solubility”.
